# Patent US20090312414A1, “Treatment Of Lower Urinary Tract Dysfunction With CB2-Receptor-Selective Agonists” (priority 2008, published 2009)
# Key:
# [1] = test system: conscious rats with partial urethral obstruction; assay: Cystometry in conscious rats with partial urethral obstruction (PUO); type: in vivo, rat; settings: 3 mg/kg IP daily for 2 weeks
# Source text: The effect of chronic treatment with the compound of Formula I on bladder function was studied by cystometry in conscious rats with partial urethral obstruction (“PUO”) after 2 weeks of treatment with the compound of Formula I. Protocols for animals and bladder catheter implantation were as in Example 4 above.
# The bladder and urethra was exposed via a mid-line incision of the lower abdom. A 19 gauge needle (0.9 mm OD) was placed on the surface of the urethra, and a 3-0 black mono nylon suture was firmly tied over the urethra and the ligation was left in place for the duration of the study. The needle was then removed and the diameter and position of the ligature was then inspected to ensure that a partial urethral obstruction was obtained. The abdominal cavity was then closed in layers with single cross-sutures (5-0 black polyfilament nylon suture). Animals were then housed in individual cages for two weeks before cystometry were performed.
# The appropriate solution of the compound of Formula I was prepared on the day of the experiment using PBS as the vehicle. A stock solution of 10 mg/ml in PBS was used and the animals were administered daily, weight-controlled doses of 3 mg/kg compound of Formula I or vehicle by intraperitoneal (“IP”) injection over the 2 week treatment period, starting on the day of PUO surgery.
# Cystometry was performed without anesthesia three days after the implantation of bladder catheters in rats with PUO, and after two weeks of daily treatment with the compound of Formula I. The conscious rats were placed in metabolic cages without restraint and the bladder catheters were connected via a T-tube to a pressure transducer (P23 DC; Statham Instruments Inc., Oxnard, Calif.) and a microinjection pump (CMA 100; Carnegie Medicine AB, Solna, Sweden). Micturition volumes were recorded with a fluid collector connected to a force displacement transducer (FT 03 D, Grass Instrument Co., Quincy, Mass.). Room-temperature saline was infused into the bladder continuously at a rate of 10 ml/h. Bladder size increases several-fold in rats subjected to PUO. Therefore, an infusion rate of 20 ml/h was used during cystometry in these animals. Pressures and micturition volumes were recorded continuously with Acq Knowledge 3.8.1 software and a MP100 data acquisition system (Biopac Syst. Inc. Santa Barbara, Calif.) connected to a Grass polygraph (Model 7E, Grass Instrument Co). At the beginning of cystometry, the bladder was emptied via the bladder catheter.
# The following urodynamic parameters were investigated: micturition pressure (“MP;” maximum bladder pressure during micturition), threshold pressure (“ThP”; bladder pressure at start of detrusor contraction), flow pressure (“FP”; bladder pressure when urethra opens), MI (time between two micturitions), micturition volume (“MV”; volume of the expelled urine), and RV (volume left in bladder after a micturition). At least a 30-minute period with stable and reproducible micturitions was recorded before drug administration and used as baseline value, to be compared with a corresponding stable 30-minute period after drug administration. For multiple comparisons, a one-way analysis of variance for repeated measures (Holm-Sidak) was used. Pairwise and non-pairwise comparisons were made by Student's t-test. All statistical calculations are based on the number of individual animals, and significant differences are accepted when p<0.05.
# As used herein, the term “chronic” means that the animals were dosed once/day for 14 days, prior to taking the cystometry measurements. For specific investigation and analysis of NVCs, the PUO should beneficially be removed approximately 2-3 days prior to the urodynamic investigation. […]
# [2] = test system: isolated detrusor from rats with partial urethral obstruction; assay: Nerve-induced contractions (electrical field stimulation) in bladder strips from PUO rats; type: ex vivo, rat; settings: for Nerve-induced contractions: % of 60 mM K+ responses, preparations from treated PUO rats
# Method: The effect of chronic treatment with the compound of Formula I was studied in contractility studies with isolated bladder strips from rats with PUO after 2 weeks of treatment with the compound of Formula I.
# Bladder strips (2×2×6 mm) were dissected from PUO rat bladders. Silk ligatures were applied at both ends of the preparations which then were mounted on metal prongs in 5 ml aerated (95% O2 and 5% CO2) tissue baths (37° C.) containing Krebs solution. Mechanical activity was registered with Grass FT 03C force transducers connected to a Grass Polygraph model 7E. The preparations were stretched to a tension of approximately 10 mN and left to equilibrate for 45 minutes to attain a stable resting tonus. To establish the viability of the preparations and to determine a standard contractile level, preparations were exposed to a 60 mM K^+ Krebs solution. The effects of cumulative addition of carbachol, a non-selective muscarininc agonist (1 nM-0.1 mM), were studied in strip preparations from vehicle-treated and compound of Formula I-treated rats with PUO.
# Transmural activation of nerves was performed with two platinum electrodes, placed in parallel to the sides of the strips in the organ baths. The nerves of the preparations were stimulated by means of a Grass S 48 stimulator, delivering single square-wave pulses at supramaximum voltage with duration of 0.5 ms. The polarity was changed after each pulse by means of a polarity-changing unit. The train duration was 5 seconds and the train interval 120 seconds. Frequency-response relationships were investigated at supramaximum voltage in all preparations stimulated electrically. […] All contractile responses were expressed as a percentage of the contraction elicited by 60 mM K^+ Krebs solution. Simultaneous curve fit analysis was performed using GraphPad Prism v4.0 to determine statistical significance for increased efficacy of the compound of Formula I treatment upon muscle strips. Briefly, dose-response curves were tested comparing a variable slope model vs. a fixed slope (m=1) model.
structure (smiles),measurement,setting,value
CCCCCCC(C)(C)c1cc(O)c([C@H]2CC(=O)[C@H]3C[C@@H]2C3(C)C)c(OC(=O)/C=C/C(=O)O)c1 [Formula I],Incidence of NVC,[1]; PUO rats,20%
same,Mean bladder weight,"[1]; PUO rats, n=10, not significant",0.88 ± 0.13 g
same,Micturition pressure (MP),"[1]; PUO rats, ns",116.0±17.4 cmH2O
same,Mean flow pressure (FP),"[1]; PUO rats, p<0.002",87.4±8.7 cmH2O
same,Mean threshold pressure (ThP),"[1]; PUO rats, p<0.002",39.4±4.9 cmH2O
same,Micturition interval (MI),"[1]; PUO rats, p<0.01",84 ± 10 s
same,Micturition volume (MV),"[1]; PUO rats, p<0.02",0.43 ± 0.07 mL
same,Residual volume (RV),"[1]; PUO rats, p<0.02",0.09 ± 0.05 mL
same,Micturition frequency,"[1]; PUO rats, p<0.03",53±11 micturitions per hour
same,PUO rats exhibiting non-voiding contractions (NVCs),[1]; p<0.04,2 out of 10
same,Nerve-induced contractions vs untreated PUO rats,"[2]; 1 Hz, bladders from PUO rats treated for 2 weeks",significantly larger contractions
same,Nerve-induced contractions,"[2]; 8 Hz, p<0.01",83±14%
same,Nerve-induced contractions,"[2]; 16 Hz, p<0.005",120±16%
same,Nerve-induced contractions,"[2]; 32 Hz, p<0.006",146±16%
